Measurements: article PMC6099623, “Novel Thiazolidinone/Thiazolo[3,2-a]Benzimidazolone-Isatin Conjugates as Apoptotic Anti-proliferative Agents Towards Breast Cancer: One-Pot Synthesis and In Vitro Biological Evaluation” (Molecules : A Journal of Synthetic Chemistry and Natural …, 2018)
Read-outs that look alike come from different tables or passages of the source.

Key:
[1] = test system: MDA-MB-231 breast cancer cell line; assay: Crystal Violet antiproliferative assay, MDA-MB-231; type: cell-based; settings: 48 h of incubation, mean ± S.D. of three separate experiments
Description: (§1) The in vitro antiproliferative activity of the newly synthesized conjugates 4a–n and 7a–d was evaluated against breast cancer MDA-MB-231 and MCF-7 cell lines, following the Crystal Violet (CV) cell cytotoxicity assay. Doxorubicin was included in this assay as a positive control, and Sunitinib was used as a reference drug.
(§2) Breast cancer cell lines MDA-MB-231 and MCF-7 cells were obtained from VACSERA Tissue Culture Unit. The cells were propagated in DMEM supplemented with 10% heat-inactivated fetal bovine serum, 1% L-glutamine (2.5 mM), HEPES (4-(2-hydroxyethyl)-1-piperazineethanesulfonic acid) buffer (10 mM) and 50 µg/mL gentamycin. All cells were maintained at 37 °C in a humidified atmosphere with 5% CO2 and were sub-cultured two times a week. Cytotoxicity was determined following the Crystal Violet (CV) cell cytotoxicity assay.
(§3) Test samples were dissolved in DMSO and kept at a stock concentration of 100 mM. Exponentially growing cells were collected using 0.25% Trypsin-EDTA and seeding was done at a density of 3000 cells/well in 96-well plates. After 24 h, the monolayer cultured cells were washed with sterile phosphate buffered saline (0.01 M pH 7.2) and simultaneously the cells were treated with […] from 10 different dilutions of the test compounds as well as Doxorubicin was […] Control wells were exposed to the same concentration of vehicle, DMSO (1%) used in the highest concentration of the test samples. Cell viability was >99% compared to untreated cells. The number of the surviving cells was determined by staining the cells with crystal violet followed by cell lysing using 33% glacial acetic acid. The absorbance was measured at 490 nm using ELISA reader (Thermo Fisher Scientific, Waltham, MA, USA) after gentle shaking. The absorbance values from untreated cells were considered as 100% proliferation.
(§4) The number of viable cells was determined using ELISA reader as previously mentioned and the percentage of viability was calculated as […] where ODt is the mean optical density of wells treated with the test sample and ODc is the mean optical density of untreated cells. The 50% inhibitory concentration (IC50) was estimated from graphic plots of the dose response curve for each conc. using GraphPad Prism software, Version 5 (San Diego, CA, USA). The data presented are the mean of at least three separate experiments.

[2] = test system: MCF-7 breast cancer cell line; assay: Crystal Violet antiproliferative assay, MCF-7; type: cell-based; settings: for IC50: Homo sapiens, MCF7, 48 h, Crystal Violet assay, 48 h of incubation, mean ± S.D. of three separate experiments
Description: as §1, §2, §3, §4

[3] = test system: lung fibroblast cell line (WI-38); assay: Crystal violet cytotoxicity towards nontumorigenic WI-38; type: cell-based; settings: Homo sapiens, nontumorigenic cells, mean ± S.D. of three separate experiments
Description: (§5) The cytotoxic activity of the active conjugates towards MDA-MB-231 cells (4c–e, 4g, 4l–n and 7a–d) was examined against nontumorigenic human lung fibroblast cell line (WI-38) and human breast epithelial cell line (MCF-10A) to investigate the potential safety of the newly prepared conjugates towards the normal cells. […] The results were expressed as IC50 values, and selectivity index was calculated (Table 2).
(§6) The cytotoxic activity of the active conjugates towards nontumorigenic human lung fibroblast cell line (WI-38) and human breast epithelial cell line (MCF-10A) was determined using Crystal violet (CV) cell cytotoxicity assay according to the previously published procedures.

[4] = test system: breast epithelial cell line (MCF-10A); assay: Crystal violet cytotoxicity towards nontumorigenic MCF-10A; type: cell-based, human; settings: for IC50: Homo sapiens, MCF-10A, nontumorigenic cells, mean ± S.D. of three separate experiments; for Selectivity Index (MCF-10A/MDA-MB-231): ratio of IC50 MCF-10A to IC50 MDA-MB-231
Description: as §5, §6

Bcl-2 = assay: ELISA immunoassay of Bcl-2 level in MDA-MB-231 cells; type: cell-based; settings: MDA-MB-231 cells treated at IC50 concentration; for Bcl-2 / Bcl-2, number of folds of control: 48 h
Description: (§7) In our study, we investigated the effect of conjugates 4m and 7b towards the level of the antiapoptotic Bcl2 and the level of the pro-apoptotic Bax, (Table 3, Figure 2).
(§8) The levels of the apoptotic markers (Bax, caspase-3) as well as the antiapoptotic marker Bcl-2 were determined using ELISA colorimetric kits per the manufacturer’s instructions, as reported earlier. MDA-MB-231 cells were cultured as a monolayer in T-25 flasks and were seeded to attain 30% confluency prior to treatment. […] At the end of treatment, cells were collected via trypsinization and centrifuged at 10,000 rpm. The pellet was then rinsed with PBS and lysed in RIPA lysis buffer at 4 °C for 45 min, then centrifuged at 14,000 rpm for 20 min to remove the cellular debris. Lysates were then collected and stored at −80 °C for later protein determination using Pierce BCA Protein Assay Kit (Pierce Biotechnology, Rockford, IL, USA) according to manufacturer’s recommendations.
(§9) The cell lysate was diluted 10 times, and 100 μL ([…]) was added to the wells of […] that were pre-coated with primary antibodies specific to Bax, Bcl-2 and caspase-3 proteins, respectively. A secondary biotin-linked antibody specific to the protein captured by the primary antibody was further added to bind the captured protein, forming a “sandwich” of specific antibodies around the desired protein in the cell lysate. The streptavidin-HRP complex was then used to bind the biotin-linked secondary antibody through its streptavidin portion. The HRP domain reacted with the added TMB substrate to form a colored product that measured at 450 nm by a plate reader (ChroMate-4300, Orlando, FL, USA) after the reaction was terminated via the addition of stop solution.

Bax = assay: ELISA immunoassay of Bax level in MDA-MB-231 cells; type: cell-based; settings: MDA-MB-231 cells treated at IC50 concentration; for Bax / Bax, number of folds of control: 48 h; for Bax/Bcl-2: control 3.9
Description: as §7, §8, §9

caspase-3 = assay: ELISA immunoassay of active caspase-3 level in MDA-MB-231 cells; type: cell-based; settings: MDA-MB-231 cells treated at IC50 concentration, 48 h
Description: The down-regulation of the antiapoptotic Bcl-2 leads to an increase in the levels of free pro-apoptotic Bax which in turn accumulates at the inner mitochondrial membrane forming channels, altering membrane permeability. Accordingly, the apoptotic factors can leak into the cytoplasm resulting in the caspases cascade activation. As a key executioner protease, caspase-3 is activated by upstream initiator caspases as caspase-9 [48]. Thence, the elevated Bax/Bcl-2 ratios obtained herein triggered the examination of the protein expression levels of active caspases-3. Treatment of TNBC MDA-MB-231 cells with conjugates 4m and 7b led to a significant increase in the active caspase-3 levels by 6.4 and 4.9 folds, respectively, compared to control (Table 3, Figure 3).
as §8, §9

MDA-MB-231 cells [5] = assay: Cell cycle analysis by DNA flow cytometry; type: cell-based; settings: 24 h at IC50 concentration
Description: The effect of hybrid 4m on cell cycle progression was evaluated in TNBC MDA-MB-231 cells after 24 h of treatment (Figure 4). Such impact was illustrated by DNA flow cytometric assay where MDA-MB-231 cells were treated with conjugate 4m at its IC50 concentration.
Subsequently, the treated cells were collected by centrifugation, fixed in ice-cold 70% (v/v) ethanol, washed with PBS, re-suspended with 100 μg/mL RNase, stained with 40 μg/mL PI, and analyzed by flow cytometry using FACS Calibur (Becton Dickinson, BD, Franklin Lakes, NJ, USA). The cell cycle distributions were calculated using CellQuest software 5.1 (Becton Dickinson).

MDA-MB-231 cells [6] = assay: Annexin V-FITC/PI apoptosis assay; type: cell-based; settings: MDA-MB-231 at IC50 concentration
Description: Annexin V-based flow cytometry assay elucidates either that cell death is achieved via programmed apoptosis or nonspecific necrosis.
Phosphatidylserine externalization was assayed using Annexin V-FITC/PI apoptosis detection kit (BD Biosciences, San Jose, CA, USA) according to the manufacturer’s instructions, as reported earlier. MDA-MB-231 cells were cultured to a monolayer then treated with conjugate 4m at its IC50 concentration as described earlier. Cells were then harvested via trypsinization, and rinsed twice in PBS followed by binding buffer. Moreover, cells were re-suspended in 100 μL of binding buffer with the addition of 1 μL of FITC-Annexin V (Becton Dickinson BD Pharmingen^TM, Heidelberg, Germany) followed by an incubation period of 30 min at 4 °C. Cells were then rinsed in binding buffer and resuspended in 150 μL of binding buffer with the addition of 1 μL of DAPI (1 μg/μL in PBS) (Invitrogen, Life Technologies, Darmstadt, Germany). Cells were then analyzed using the flow cytometer BD FACS Canto II (BD Biosciences, San Jose, CA, USA) and the results were interpreted with FlowJo7.6.4 software (Tree Star, Ashland, OR, USA).

[7] = test system: MCF-7 breast cancer cell line; parameters: method as in PMID 28802125; settings: earlier work of the authors; cited from earlier work

| SMILES | IC50 ([1]; Homo sapiens, MDA-MB-231, 48 h) [µM] | IC50 [2] [µM] | melting point [°C] | IC50 [3] [µM] | IC50 [4] [µM] | Selectivity Index (MCF-10A/MDA-MB-231) [4] | further results |
| --- | --- | --- | --- | --- | --- | --- | --- |
| COc1ccc2c(c1)C(=C1SC(=Nc3ccc(C)cc3)N(c3ccc(C)cc3)C1=O)C(=O)N2 [Compound 4l, 5-(5-Methoxy-2-oxoindolin-3-ylidene)-3-(p-tolyl)-2-(p-tolylimino)thiazolidin-4-one] | 47.1 ± 4.1 | 53.5 ± 3.6 | > 300 | 176 ± 11.3 | 157 ± 6.8 | 3.3 | IC50 [1]: 47.2 ± 4.1 µM |
| Cc1ccc(N=C2SC(=C3C(=O)Nc4ccc(C)cc43)C(=O)N2c2ccc(C)cc2)cc1 [Compound 4m, 5-(5-Methyl-2-oxoindolin-3-ylidene)-3-(p-tolyl)-2-(p-tolylimino)thiazolidin-4-one] | 7.6 ± 0.5 | 8.4 ± 0.5 |  | 49.1 ± 1.9 | 73.1 ± 2.7 | 9.6 | Downregulation of Bcl-2 expression level compared to control (Bcl-2): 66.6%; Bcl-2 (Bcl-2): 2.1 ± 0.1 ng/mg of Total Protein; Bcl-2, number of folds of control (Bcl-2): 0.33 folds of control; Boost of Bax/Bcl-2 ratio compared to control (Bax): 33 folds; Bax (Bax): 274.8 ± 13.5 pg/mg of Total Protein; Bax, number of folds of control (Bax): 11.1 folds of control; Bax/Bcl-2 (Bax): 130.5; Decreased activity against MCF-7 relative to doxorubicin ([2]; IC50 ratio to doxorubicin): 2.2 fold; Caspase-3 (caspase-3): 0.19 ± 0.01 ng/mg of Total Protein; Caspase-3, number of folds of control (caspase-3): 6.4 folds of control; Arrest in G2-M phase compared to control (MDA-MB-231 cells [5]): 2.5 folds; Rise in percentage of cells at Sub-G1 compared to control (MDA-MB-231 cells [5]): 4 folds; Increase of annexin V-FITC-positive apoptotic cells compared with control (MDA-MB-231 cells [6]): about 6 folds; Percent of annexin V-FITC-positive apoptotic cells, early and late (UR + LR) (MDA-MB-231 cells [6]; control 1.92%): 11.43% |
| Cc1ccc(N=C2SC(=C3C(=O)Nc4c(C)cc(C)cc43)C(=O)N2c2ccc(C)cc2)cc1 [Compound 4n, 5-(5,7-Dimethyl-2-oxoindolin-3-ylidene)-3-(p-tolyl)-2-(p-tolylimino)thiazolidin-4-one] | 36.3 ± 2.9 | 23.7 ± 1.9 | > 300 | 218 ± 13.5 | 154 ± 5.2 | 4.2 |  |
| O=C1Nc2ccc(Cl)cc2C1=c1sc2nc3ccccc3n2c1=O [Compound 7a, 2-(5-Chloro-2-oxoindolin-3-ylidene)benzo[4,5]imidazo[2,1-b]thiazol-3(2H)-one] | 47.2 ± 3.8 | 127 ± 9.9 | > 300 | 353 ± 17.1 | 234 ± 9.6 | 5.0 |  |
| COc1ccc2c(c1)C(=c1sc3nc4ccccc4n3c1=O)C(=O)N2 [Compound 7b, 2-(5-Methoxy-2-oxoindolin-3-ylidene)benzo[4,5]imidazo[2,1-b]thiazol-3(2H)-one] | 13.2 ± 1.7 | 21.7 ± 1.5 | > 300 | 121 ± 6.9 | 184 ± 8 | 13.9 | Downregulation of Bcl-2 expression level compared to control (Bcl-2): 55.1%; Bcl-2 (Bcl-2): 2.8 ± 0.1 ng/mg of Total Protein; Bcl-2, number of folds of control (Bcl-2): 0.45 folds of control; Boost of Bax/Bcl-2 ratio compared to control (Bax): 16 folds; Bax (Bax): 180.0 ± 7.3 pg/mg of Total Protein; Bax, number of folds of control (Bax): 7.3 folds of control; Bax/Bcl-2 (Bax): 64.1; Caspase-3 (caspase-3): 0.15 ± 0.01 ng/mg of Total Protein; Caspase-3, number of folds of control (caspase-3): 4.9 folds of control |
| Cc1ccc2c(c1)C(=c1sc3nc4ccccc4n3c1=O)C(=O)N2 [Compound 7c, 2-(5-Methyl-2-oxoindolin-3-ylidene)benzo[4,5]imidazo[2,1-b]thiazol-3(2H)-one] | 40.3 ± 2.5 | 48.2 ± 2.7 | > 300 | 192 ± 10.8 | 242 ± 11.5 | 6.0 |  |
| Cc1cc(C)c2c(c1)C(=c1sc3nc4ccccc4n3c1=O)C(=O)N2 [Compound 7d, 2-(5,7-Dimethyl-2-oxoindolin-3-ylidene)benzo[4,5]imidazo[2,1-b]thiazol-3(2H)-one] | 23.5 ± 1 | 27.6 ± 2.4 | > 300 | 234 ± 15.4 | 250 ± 9.8 | 10.7 |  |
| NS(=O)(=O)c1ccc(/N=C2\NC(=O)/C(=C3/C(=O)Nc4ccc(Cl)cc43)S2)cc1 [compound VI] |  |  |  |  |  |  | IC50 [7]: 3.96 ± 0.21 µM |
